{"source": "patent US20200397673A1", "about": "“AN ANTIMICROBIAL COMPOSITION” (Conopco, Inc., d/b/a UNILEVER, priority 2017, published 2020)", "tested_on": "M. furfur ATCC 14521", "assay": "Antifungal activity (log reduction) on M. furfur", "type": "cell-based", "conditions": "contact time 24 hr, 10 mg sample in 1000 μL inoculum, 10^5 cells/ml, 32° C.", "procedure": "The above samples were subjected to their anti fungal efficacy on M. furfur as described hereinafter.\nM. furfur ATCC 14521 strain was revived from glycerol stock on Modified Dixon agar. Plate was at 30° C. for 72 hrs. Approximately 72 hrs prior to testing, the plate culture was inoculated onto the surface of another sterile Modified Dixon agar plate and incubated at 30° C. for approximately 72 hrs. From second subculture, the optical density of culture is adjusted at 620 nm to give cell strength of 10^7 cfu/ml. The culture was further diluted for 100 times to achieve 10^5 cfu/ml in Pityrosporum broth.\n1000 μL of M. furfur inocula were added to the above tubes and a blank sterile 1.5 ml Eppendorf tube (no particles as control), respectively so that the load in each tube is 10^5 cells/ml.\nAll the samples were kept shaken @120 RPM in a shaker incubator at 32° C. After 24 hours incubation, 10 μL of the samples were withdrawn from the respective 1.5 ml Eppendorf tubes and diluted with 990 μL of Pityrosporum broth. This represents 10^−2 dilution. Serial dilution was performed from the above 24 hours inocula and plated 100 μL of dilution onto modified Dixon plate. Plate dilution 10^−2, 10^−3, 10^−4 and 10^−5. All the plates were kept for incubation at 32° C. for 24-72 hrs. Plate count for all the plates were done."}
{"substance": "zinc pyrithione [Example B]", "values": [{"measurement": "Log reduction", "value": 1.58}]}
